Assay results as given in patent publication US8329705B2, “Substituted triazolo-pyrazine compounds” (ArQule, Inc., priority 2009, dated 2012).

Assays:
MDA-MB-231 cancer cells = test: MTS assay, MDA-MB-231 cells; format: cell-based; design: concentration or dose not given beside the values
Protocol: (§1) Cells were maintained at 37° C., 5% CO2 in DMEM media supplemented with 1% fetal bovine serum, penicillin/streptomycin and fungizone (Invitrogen). Cells were seeded into 96-well tissue culture plates at 3000 per well and cultured at 37° C. for 18 hours. Test compounds were dissolved and diluted to 300× in DMSO then diluted 1:40 in DMEM. Cells were incubated with test compounds for 72 hours followed by incubation with tetrazolium compound (3-(4,5-dimethylthiazol-2-yl)-5-(3-carboxymethoxyphenyl)-2-(4-sulfophenyl)-2H-tetrazolium, inner salt; MTS) and the electron coupling reagent, phenazine methosulfate (PMS) for 4 hours. […] The ability of compounds to inhibit cell growth in this assay is correlated with the reduction of dehydrogenase enzyme activity found in metabolically active cells. The measurement of the absorbance of the formazan was assessed using a Victor (Perkin Elmer) microplate reader at 492 nm. The calculated IC50 value is the concentration of the test compound that causes a 50% decrease in the absorbance. Percent inhibition by representative compounds of the present invention in MDA-MB231 and DLD-1 cancer cells is shown in Table 4.

FGFR2 (N549H) = molecular target: T1, FGFR2 (N549H) (Homo sapiens, UniProt P21802, N549H); test: FGFR2 kinase activity assay (fluorescent ELISA); format: biochemical; conditions: 30 μM compound
T1 construct: purchased Millipore 14-742
T1 sequence (P21802 22-821 N549H): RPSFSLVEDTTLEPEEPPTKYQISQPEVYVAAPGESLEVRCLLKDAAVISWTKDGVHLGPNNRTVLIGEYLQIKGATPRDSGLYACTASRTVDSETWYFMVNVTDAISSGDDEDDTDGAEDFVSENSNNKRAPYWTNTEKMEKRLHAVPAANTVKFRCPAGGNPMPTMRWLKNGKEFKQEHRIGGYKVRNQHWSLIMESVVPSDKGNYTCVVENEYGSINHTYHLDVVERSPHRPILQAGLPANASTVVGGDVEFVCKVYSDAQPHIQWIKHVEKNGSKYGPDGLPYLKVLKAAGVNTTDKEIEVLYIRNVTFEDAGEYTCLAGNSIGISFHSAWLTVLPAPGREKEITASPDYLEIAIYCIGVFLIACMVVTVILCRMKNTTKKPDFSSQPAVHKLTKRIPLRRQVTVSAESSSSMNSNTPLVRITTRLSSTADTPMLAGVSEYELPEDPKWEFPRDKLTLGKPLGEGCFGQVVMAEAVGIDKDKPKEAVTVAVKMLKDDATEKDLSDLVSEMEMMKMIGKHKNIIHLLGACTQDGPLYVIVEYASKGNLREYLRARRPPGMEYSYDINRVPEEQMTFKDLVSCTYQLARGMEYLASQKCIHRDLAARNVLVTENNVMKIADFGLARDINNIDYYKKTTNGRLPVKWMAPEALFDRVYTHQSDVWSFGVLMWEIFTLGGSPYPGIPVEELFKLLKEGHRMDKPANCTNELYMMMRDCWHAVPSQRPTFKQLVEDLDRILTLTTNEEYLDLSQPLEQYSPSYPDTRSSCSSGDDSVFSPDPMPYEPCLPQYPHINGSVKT
Protocol: A fluorescent ELISA assay was developed to identify and characterize inhibitors of FGFR2 kinase. This heterogeneous assay utilized a biotinylated peptide with a tyrosine motif as a substrate and an anti-phospho-tyrosine antibody to measure phosphorylation of the substrate. The reaction was initiated by adding a test compound, 37 uM Pyk2 substrate (Midwest Biotech, cat. #MBT2383), 12.5 uM ATP (Roche, cat. #11 140 965 001), and 0.5 uM FGFR2 enzyme (Millipore, cat. #14-742) sequentially to a non-binding polypropylene V-well plate. All reagents were in assay buffer consisting of: 50 mM Tris-HCL, 0.02 mg/mL BSA, 10 mM MgCl2, 0.1 mM Na3VO4, 1 mM EGTA, […], 0.01% NP-40, 2 mM DTT, 10% Glycerol. The reaction was incubated for 60 minutes. As the reaction proceeded, FGFR2 phosphorylated tyrosines in the peptide. The reaction mixture was then moved to a blocked streptavidin coated Nunc Maxisorb plate (coated with 100 ng streptavidin from Pierce (cat #15-124) per well) allowing for the capture of the biotinylated peptide. Peptide was captured for 30 minutes at room temperature, the phosphorylation of peptide continues during this phase. The reaction was stopped by washing the Streptavidin plate 6 times with TBST. Phosphorylated peptide was detected by adding anti-phospho tyrosine antibody (purchased from Cell Signaling, cat. #9411, diluted 1:3000), unbound antibody was removed by washing 6 times with TBST. Secondary detection was performed using Alkaline Phosphatase tagged goat anti-mouse antibody (purchased from Pierce, cat. #31320, diluted 1:4000) for one hour. Unbound secondary antibody was removed by washing 6 times with TBST.
The fluorescent readout was initiated by the addition of Promega Attophos substrate (purchased from Promega; Kit catalog number: S1000, dilution=6 mg/10 mL), which when dephosphorylated by Alkaline phosphatase emitted a fluorescent signal of […] when excited by a signal […]. This reading was done on the Perkin Elmer Envision system. […] The signal was directly proportional to the activity of FGFR2 and compound inhibition of FGFR2 was monitored by a decrease in signal.

DLD-1 cancer cells = test: MTS assay, DLD-1 cells; format: cell-based; design: concentration or dose not given beside the values
Protocol: as §1

CC(C)OC(=O)Nc1nnc2c(NCc3ccc(C(C)(C)C)cc3)nccn12 [Compound 22, isopropyl {8-[(4-tert-butylbenzyl)amino][1,2,4]triazolo[4,3-a]pyrazin-3-yl}carbamate]
MDA-MB-231, MTS, 72 hours (% inhibition) (MDA-MB-231 cancer cells): 99%
inhibition at 30 µM (FGFR2 (N549H)): 100%
DLD-1, MTS, 72 hours (% Inhibition) (DLD-1 cancer cells): 98%

COc1ccccc1Nc1nccn2c(NC(=O)OC(C)C)nnc12 [Compound 39, isopropyl {8-[(2-methoxyphenyl)amino][1,2,4]triazolo[4,3-a]pyrazin-3-yl}carbamate]
MDA-MB-231, MTS, 72 hours (% inhibition) (MDA-MB-231 cancer cells): 97%
inhibition at 30 µM (FGFR2 (N549H)): 78.3%
DLD-1, MTS, 72 hours (% Inhibition) (DLD-1 cancer cells): 97%

CC(C)OC(=O)Nc1nnc2c(Nc3ccc(Br)cc3)nccn12 [Compound 52, isopropyl {8-[(4-bromophenyl)amino][1,2,4]triazolo[4,3-a]pyrazin-3-yl}carbamate]
MDA-MB-231, MTS, 72 hours (% inhibition) (MDA-MB-231 cancer cells): 98%
inhibition at 30 µM (FGFR2 (N549H)): 95.1%
DLD-1, MTS, 72 hours (% Inhibition) (DLD-1 cancer cells): 97%

CC(C)OC(=O)Nc1nnc2c(N(C)c3ccccn3)nccn12 [Compound 53, isopropyl {8-[methyl(pyridin-2-yl)amino][1,2,4]triazolo[4,3-a]pyrazin-3-yl}carbamate]
MDA-MB-231, MTS, 72 hours (% inhibition) (MDA-MB-231 cancer cells): 99%
inhibition at 30 µM (FGFR2 (N549H)): 68.1%
DLD-1, MTS, 72 hours (% Inhibition) (DLD-1 cancer cells): 96%

COc1ccccc1CCNc1nccn2c(NC(=O)OC(C)C)nnc12 [Compound 58, isopropyl (8-{[2-(2-methoxyphenyl)ethyl]amino}[1,2,4]triazolo[4,3-a]pyrazin-3-yl)carbamate]
MDA-MB-231, MTS, 72 hours (% inhibition) (MDA-MB-231 cancer cells): 59%
inhibition at 30 µM (FGFR2 (N549H)): 80.6%
DLD-1, MTS, 72 hours (% Inhibition) (DLD-1 cancer cells): 10%

CC(C)OC(=O)Nc1nnc2c(N3CCCCC3)nccn12 [Compound 59, isopropyl (8-piperidin-1-yl[1,2,4]triazolo[4,3-a]pyrazin-3-yl)carbamate]
MDA-MB-231, MTS, 72 hours (% inhibition) (MDA-MB-231 cancer cells): 53%
inhibition at 30 µM (FGFR2 (N549H)): 82.5%
DLD-1, MTS, 72 hours (% Inhibition) (DLD-1 cancer cells): 48%

CCc1ccc(CCNc2nccn3c(NC(=O)OC(C)C)nnc23)cc1 [Compound 62, isopropyl (8-{[2-(4-ethylphenyl)ethyl]amino}[1,2,4]triazolo[4,3-a]pyrazin-3-yl)carbamate]
MDA-MB-231, MTS, 72 hours (% inhibition) (MDA-MB-231 cancer cells): 78%
inhibition at 30 µM (FGFR2 (N549H)): 74.2%
DLD-1, MTS, 72 hours (% Inhibition) (DLD-1 cancer cells): 93%

CCN(c1ccccc1C)c1nccn2c(NC(=O)OC(C)C)nnc12 [Compound 63, isopropyl {8-[ethyl(2-methylphenyl)amino][1,2,4]triazolo[4,3-a]pyrazin-3-yl}carbamate]
MDA-MB-231, MTS, 72 hours (% inhibition) (MDA-MB-231 cancer cells): 76%
inhibition at 30 µM (FGFR2 (N549H)): 75.7%
DLD-1, MTS, 72 hours (% Inhibition) (DLD-1 cancer cells): 98%

CCN(c1cc(O)ccc1C)c1nccn2c(NC(=O)OC(C)C)nnc12 [Compound 64, isopropyl {8-[ethyl(5-hydroxy-2-methylphenyl)amino][1,2,4]triazolo[4,3-a]pyrazin-3-yl}carbamate]
MDA-MB-231, MTS, 72 hours (% inhibition) (MDA-MB-231 cancer cells): 51%
inhibition at 30 µM (FGFR2 (N549H)): 57.2%
DLD-1, MTS, 72 hours (% Inhibition) (DLD-1 cancer cells): 26%

CC(C)OC(=O)Nc1nnc2c(NCc3cccc(C(F)(F)F)c3)nccn12 [Compound 81, isopropyl (8-{[3-(trifluoromethyl)benzyl]amino}[1,2,4]triazolo[4,3-a]pyrazin-3-yl)carbamate]
MDA-MB-231, MTS, 72 hours (% inhibition) (MDA-MB-231 cancer cells): 99%
inhibition at 30 µM (FGFR2 (N549H)): 96.9%
DLD-1, MTS, 72 hours (% Inhibition) (DLD-1 cancer cells): 98%

CC(C)OC(=O)Nc1nnc2c(N3CCC(n4c(=O)[nH]c5cc(Cl)ccc54)CC3)nccn12 [Compound 82, isopropyl {8-[4-(5-chloro-2-oxo-2,3-dihydro-1H-benzimidazol-1-yl)piperidin-1-yl][1,2,4]triazolo[4,3-a]pyrazin-3-yl}carbamate]
MDA-MB-231, MTS, 72 hours (% inhibition) (MDA-MB-231 cancer cells): 92%
inhibition at 30 µM (FGFR2 (N549H)): 65.2%
DLD-1, MTS, 72 hours (% Inhibition) (DLD-1 cancer cells): 97%

CC(C)OC(=O)Nc1nnc2c(NCc3cccc(F)c3)nccn12 [Compound 86, isopropyl {8-[(3-fluorobenzyl)amino][1,2,4]triazolo[4,3-a]pyrazin-3-yl}carbamate]
MDA-MB-231, MTS, 72 hours (% inhibition) (MDA-MB-231 cancer cells): 98%
inhibition at 30 µM (FGFR2 (N549H)): 88.8%
DLD-1, MTS, 72 hours (% Inhibition) (DLD-1 cancer cells): 97%

Cc1ccc(CCNc2nccn3c(N)nnc23)cc1 [Compound 90, N^8-[2-(4-methylphenyl)ethyl][1,2,4]triazolo[4,3-a]pyrazine-3,8-diamine]
MDA-MB-231, MTS, 72 hours (% inhibition) (MDA-MB-231 cancer cells): 81%
inhibition at 30 µM (FGFR2 (N549H)): 60.8%
DLD-1, MTS, 72 hours (% Inhibition) (DLD-1 cancer cells): 89%

Nc1nnc2c(NCCc3ccc(Oc4ccccc4)cc3)nccn12 [Compound 93, N^8-[2-(4-phenoxyphenyl)ethyl][1,2,4]triazolo[4,3-a]pyrazine-3,8-diamine]
MDA-MB-231, MTS, 72 hours (% inhibition) (MDA-MB-231 cancer cells): 99%
inhibition at 30 µM (FGFR2 (N549H)): 82.9%
DLD-1, MTS, 72 hours (% Inhibition) (DLD-1 cancer cells): 98%

Nc1nnc2c(NCCc3ccc(Cl)cc3)nccn12 [Compound 115, N^8-[2-(4-chlorophenyl)ethyl][1,2,4]triazolo[4,3-a]pyrazine-3,8-diamine]
MDA-MB-231, MTS, 72 hours (% inhibition) (MDA-MB-231 cancer cells): 99%
inhibition at 30 µM (FGFR2 (N549H)): 71.6%
DLD-1, MTS, 72 hours (% Inhibition) (DLD-1 cancer cells): 98%

Cc1ccccc1Nc1nccn2c(N)nnc12 [Compound 157, N^8-(2-methylphenyl)[1,2,4]triazolo[4,3-a]pyrazine-3,8-diamine]
MDA-MB-231, MTS, 72 hours (% inhibition) (MDA-MB-231 cancer cells): 98%
inhibition at 30 µM (FGFR2 (N549H)): 54.6%
DLD-1, MTS, 72 hours (% Inhibition) (DLD-1 cancer cells): 97%

Nc1nnc2c(Nc3cc(Cl)ccc3Cl)nccn12 [Compound 160, N^8-(2,5-dichlorophenyl)[1,2,4]triazolo[4,3-a]pyrazine-3,8-diamine]
MDA-MB-231, MTS, 72 hours (% inhibition) (MDA-MB-231 cancer cells): 81%
inhibition at 30 µM (FGFR2 (N549H)): 68.6%
DLD-1, MTS, 72 hours (% Inhibition) (DLD-1 cancer cells): 53%
